Like-named read-outs stand apart in the source and are kept apart here.
What was measured:
[1] = test system: human neuroblastoma cell line SH-SYSY; assay: Neuroprotection against rotenone plus oligomycin A-induced cell death (LDH release); conditions: rotenone (30 micromolar) plus oligomycin A (10 micromolar)
Protocol: With this goal in mind, the cytoprotective effect of the compounds was evaluated in human neuroblastoma cells, specifically the neuroprotective potential of these compounds against oxidative stress produced in two different models: with hydrogen peroxide as exogenous generator of free radicals, and with rotenone and oligomycin A, blockers of the mitochondrial respiratory chain, as described in J. Neurochem.
In the assays, SH-SYSY were sub-cultured in 48-well plates with a density of seed of 5×10^5 cells per well, or in 96-well plates with a density of 2×10^5 cells per well. In the cytotoxicity experiments, cells prepared in this way were treated with the compounds to test, in DMEM free of serum.
To study the cytoprotective action of different compounds against cell death induced by hydrogen peroxide 30 micromolar or by a combination of rotenone 30 micromolar with oligomycin A 10 micromolar, compounds were added to the medium and maintained there for 24 hours. Then, media were replaced by fresh media still containing the compound plus the cytotoxic agent, and were maintained there for an additional period of 24 hours. Cell viability was checked by measuring the activity of the enzyme LDH, as it was explained before, using the kit “Cytotoxicity Cell Death” (Roche-Boehringer Mannheim) following the instructions of the manufacturer. Total LDH activity was defined as the sum of intra plus extra LDH activities. Released LDH was defined as the percentage of extracellular compared with total LDH activity.
In all the pharmacological experiments a positive control was used as comparison and to evaluate the reliability of the method used.

[2] = test system: human neuroblastoma cell line SH-SYSY; assay: Neuroprotection against hydrogen peroxide-induced cell death (LDH release); format: cell-based; conditions: for inhibition at 30 µM: compound 30 micromolar (concentration of maximum protection); for inhibition at 10 µM: read-out: Protection (%); for inhibition at 3 µM: compound 3 micromolar (concentration of maximum protection); for inhibition at 1 µM: compound 1 micromolar (concentration of maximum protection)
[3] = molecular target: T1, peripheral site of AChE from bovine erythrocytes (Bos taurus, UniProt P23795); assay: biochemical; format: binding; conditions: for inhibition at 0.3 µM: compound 0.3 micromolar (concentration of maximum reduction)
T1 construct: A solution of AChE from bovine erythrocytes; from tissue; host or cells: bovine erythrocytes
T1 sequence (P23795 31-614 isoform P23795-2 limits assumed): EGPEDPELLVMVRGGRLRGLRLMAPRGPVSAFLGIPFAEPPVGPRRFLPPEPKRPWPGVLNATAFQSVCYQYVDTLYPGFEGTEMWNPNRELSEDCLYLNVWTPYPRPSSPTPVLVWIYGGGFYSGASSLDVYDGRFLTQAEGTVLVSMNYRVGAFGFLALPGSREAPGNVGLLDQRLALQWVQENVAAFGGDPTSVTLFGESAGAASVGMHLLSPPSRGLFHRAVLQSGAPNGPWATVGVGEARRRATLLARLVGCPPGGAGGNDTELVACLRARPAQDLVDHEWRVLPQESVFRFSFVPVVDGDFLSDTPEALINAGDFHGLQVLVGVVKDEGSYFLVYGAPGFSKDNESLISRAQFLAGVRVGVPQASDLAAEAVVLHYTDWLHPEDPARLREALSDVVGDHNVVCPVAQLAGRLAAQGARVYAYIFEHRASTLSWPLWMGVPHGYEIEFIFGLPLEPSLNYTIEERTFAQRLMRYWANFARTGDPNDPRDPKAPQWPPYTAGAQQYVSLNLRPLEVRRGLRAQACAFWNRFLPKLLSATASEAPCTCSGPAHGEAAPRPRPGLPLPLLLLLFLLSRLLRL
Protocol: A competition test for the peripheral site of acetylcholinesterase was carried out with the compounds at concentrations of 0.3, 1 and 3 micromolar.
A solution of AChE from bovine erythrocytes at the concentration of 5 micromolar in Tris buffer 0.1 milimolar and pH 8 was used.

[4] = molecular target: T2, purified AChE from Electrophorus electricus (Electrophorus electricus, UniProt O42275); assay: Inhibition of acetylcholinesterase (method of Rappaport); format: biochemical
T2 construct: using purified AChE from Electrophorus electricus; from tissue
T2 sequence (O42275 24-633): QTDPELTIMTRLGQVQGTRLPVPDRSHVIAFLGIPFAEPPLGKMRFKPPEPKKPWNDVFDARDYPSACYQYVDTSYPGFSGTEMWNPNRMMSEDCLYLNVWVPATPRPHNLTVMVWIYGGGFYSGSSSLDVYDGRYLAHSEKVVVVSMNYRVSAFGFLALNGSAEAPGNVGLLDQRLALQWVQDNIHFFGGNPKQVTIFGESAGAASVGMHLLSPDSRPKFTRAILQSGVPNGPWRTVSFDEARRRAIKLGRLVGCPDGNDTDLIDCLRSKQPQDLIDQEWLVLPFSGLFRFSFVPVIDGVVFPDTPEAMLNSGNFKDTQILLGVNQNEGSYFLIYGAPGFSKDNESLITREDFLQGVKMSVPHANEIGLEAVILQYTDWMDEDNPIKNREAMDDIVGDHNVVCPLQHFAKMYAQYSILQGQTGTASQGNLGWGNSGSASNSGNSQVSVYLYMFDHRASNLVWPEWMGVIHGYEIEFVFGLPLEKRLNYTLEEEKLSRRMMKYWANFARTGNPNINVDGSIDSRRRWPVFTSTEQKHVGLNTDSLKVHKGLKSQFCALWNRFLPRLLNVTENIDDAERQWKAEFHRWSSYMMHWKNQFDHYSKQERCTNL
Protocol: For this reason, it was considered interesting to evaluate the capacity to inhibit AChE of the compounds of the present invention. This evaluation was performed following the method of Rappaport (Clin. Chim. Acta 1959, 4, 227), using purified AChE from Electrophorus electricus and acetylcholine chloride (29.5 milimolar) as substrate. The reaction took place in a final volumen of 2.5 milliliters of an aqueous solution containing 0.78 units of AChE and m-nitrophenol at 1.9 milimolar to produce a yellow color, which is lost in function of the enzyme activity.
Curves of inhibition were made incubating with the compounds of the present invention for 30 minutes and a sample without any compound was prepared to determine the 100% of the enzymatic activity. After 30 minutes of incubation, the loss of yellow color was evaluated by measuring absorbance at 405 nanometers in a spectrophotometric microplate reader (iEMS Reader MF, Labsystems). The concentration of compound producing 50% inhibition of AChE activity (IC50) was calculated transforming the values of absorbance to enzymatic activity Rappaport units extrapolating from a calibration curve previously obtained.
The results of inhibition of AChE, expressed as the concentration which inhibits 50% of activity (IC50) for the compounds of the present invention, are the following: […]

[5] = PAMPA
Protocol: (§1) The experiments were performed using two 96-well microplate in a sandwich assembly. The top microplate (Millipore, Ref MAIPS4510) is provided with 96 hydrophobic PVDF filters, where a solution of a lipid extract of pig brain (Avanti Polar Lipids) in dodecane is put down.
(§2) The bottom microplate has 96 tear-shaped wells (Millipore, Ref. MAMCS9610). The acceptor 96-well microplate was filled with 180 μL per well of a mixture of phosphate buffer saline pH 7.4 (PBS) and EtOH in proportion 90:10. The filter surface of the donor microplate was impregnated with 4 μL of a solution of lipid extract from pig brain in dodecane (20 mg mL^−1). Compounds were dissolved in PBS/EtOH (90:10) and then 180 μL were added to the donor microplate, which is carefully placed on the receiver plate. After 120 minutes of incubation at 25° C., plate donor is carefully separated and determined the concentration of the compounds in the acceptor plate by UV spectroscopy. This method measures the permeability, expressed as the rate of passage of a given barrier in 10^−6 centimeter per second (10^−6 cm s^−1). The results are expressed as the mean plus/minus the standard deviation of three independent assays, each containing four replicates of each tested compound.

[6] = in vitro; conditions: pig, PAMPA, pH 7.4
Protocol: as §1, §2

[7] = compound 3 micromolar (concentration of maximum protection)
[8] = oxygen peroxide (60 micromolar) stimulus, SH-SYSY, LDH
[9] = compound 0.3 micromolar (concentration of maximum protection)
[10] = propidium 20 micromolar, AChE 5 micromolar, read-out: Protection (%) (percentage of the reduction in propidium fluorescence)
[11] = 30 minutes incubation, acetylcholine chloride 29.5 milimolar as substrate, read-out: AChE-I, IC50
[12] = oxygen peroxide (60 micromolar) stimulus, compound 10 micromolar (concentration of maximum protection), SH-SYSY, LDH
[13] = compound 3 micromolar (concentration of maximum reduction), propidium 20 micromolar, AChE 5 micromolar, read-out: Protection (%) (percentage of the reduction in propidium fluorescence)
[14] = read-out: Protection (%) (percentage of the reduction in propidium fluorescence)

Compound: Cc1c(C)c2c(c(C)c1O)CCC(C)(C(=O)O)O2 (stereo not shown) [Trolox, trolox, reference compound]
- Protection (%) [1, 7]: 52.9%
- inhibition at 30 µM [2, 8]: 57.7%

Compound: CCCCCCOC(=O)C(CCC(=O)NCCC1CCN(Cc2ccccc2)CC1)NC(=O)c1cc2ccsc2s1 (stereo not shown) [Example 1.7, n-hexyl 4-[2-(1-benzyl-piperidin-4-yl)-ethylcarbamoyl]-2-[(thieno[2,3-b]thiophen-2-carbonyl)-amino]-butyrate]
- Protection (%) [1, 9]: 46.1%
- inhibition at 0.3 µM [3, 10]: 42.2%
- IC50 [4, 11]: 3.5 µM
- inhibition at 10 µM [2, 12]: 46.4%

Compound: CCCCCCOC(=O)C(CCC(=O)NCCC1CCN(Cc2ccccc2)CC1)NC(=O)c1ccccc1 (stereo not shown) [Example 1.3, n-hexyl 2-benzoylamino-4-[2-(1-benzylpiperidin-4-yl)-ethylcarbamoyl]-butyrate]
- Protection (%) [1, 9]: 47.9%
- inhibition at 3 µM [3, 13]: 37.3%
- IC50 [4, 11]: 1.9 µM
- inhibition at 3 µM [2, 8]: 68.1%

Compound: CCCCCCOC(=O)C(CCC(=O)NCCC1CCN(Cc2ccccc2)CC1)NC(=O)c1cc2ccccc2s1 (stereo not shown) [Example 1.4, n-hexyl 2-[(benzo[b]tiofen-2-carbonyl)-amino]-4-[2-(1-benzyl-piperidin-4-yl)-ethylcarbamoyl]-butyrate]
- inhibition at 3 µM [3, 13]: 39.7%
- IC50 ([4]; read-out: AChE-I, IC50): 2.5 µM
- inhibition at 1 µM [2, 8]: 28.7%

Compound: CCCCCCOC(=O)C(CCC(=O)NCCC1CCN(Cc2ccccc2)CC1)NC(=O)OCc1ccccc1 (stereo not shown) [Example 1.1, n-hexyl 2-benzyloxycarbonylamino-4-[2-(1-benzylpiperidin-4-yl)-ethylcarbamoyl]-butyrate]
- inhibition at 3 µM [3, 14]: 29.3%
- IC50 [4]: 1.4 µM
- inhibition at 10 µM [2]: 39.1%

Compound: CCCCCCOC(=O)C(CCC(=O)NCCC1CCN(Cc2ccccc2)CC1)NC(=O)OC(C)(C)C (stereo not shown) [Example 1.2, n-hexyl 4-[2-(1-benzylpiperidin-4-yl)-ethylcarbamoyl]-2-tert-butoxycarbonylamino-butyrate]
- inhibition at 1 µM [3, 14]: 43.6%
- Classification (CNS penetration) [5]: CNS+
- Papp at 120 min [6]: 4.4 ± 0.1 ×10⁻⁶ cm/s
- IC50 [4]: 5 µM
- inhibition at 1 µM [2, 8]: 24.9%

Compound: CCCCCCOC(=O)C(CCC(=O)NCCC1CCN(Cc2ccccc2)CC1)NC(=O)c1cc(Br)cs1 (stereo not shown) [Example 1.9, n-hexyl 4-[2-(1-benzyl-piperidin-4-yl)-ethylcarbamoyl]-2-[(4-bromo-thiophen-2-carbonyl)-amino]-butyrate]
- Protection (%) [1, 7]: 35.9%
- inhibition at 0.3 µM [3, 10]: 11.3%
- IC50 [4, 11]: 1.2 µM
- inhibition at 3 µM [2, 8]: 84.3%

Compound: CCCCCCOC(=O)C(CCC(=O)NCCC1CCN(Cc2ccccc2)CC1)NC(=O)c1cc2cccnc2s1 (stereo not shown) [Example 1.6, n-hexyl 4-[2-(1-benzyl-piperidin-4-yl)-ethylcarbamoyl]-2-[(thieno[2,3-b]piridin-2-carbonyl)-amino]-butyrate]
- inhibition at 0.3 µM [3, 10]: 37.4%
- Classification (CNS penetration) [5]: CNS+
- Papp at 120 min [6]: 3.2 ± 0.01 ×10⁻⁶ cm/s
- IC50 [4, 11]: 3.25 µM
- inhibition at 30 µM [2, 8]: 48.8%

Compound: CCCCCCOC(=O)C(CCC(=O)NCCC1CCN(Cc2ccccc2)CC1)NC(=O)Cc1cc2ccc(Cl)cc2s1 (stereo not shown) [Example 1.5, n-hexyl 4-[2-(1-benzyl-piperidin-4-yl)-ethylcarbamoyl]-2-[2-(6-chloro-benzo[b]thiophen-2-yl)-acetylamino]-butyrate]
- inhibition at 3 µM [3, 13]: 23.4%
- IC50 [4, 11]: 2.3 µM
- inhibition at 3 µM [2, 8]: 32.5%

Compound: C=CC[N+](C)(C)c1ccc(CCC(=O)CCc2ccc([N+](C)(C)CC=C)cc2)cc1.[Br-].[Br-] [BW284c51, reference compound]
- Protection (%) (percentage of the reduction in propidium fluorescence) ([3]; positive control at 1000 micromolar (1 milimolar), propidium 20 micromolar, AChE 5 micromolar): 24.5%

Compound: CCCCCCOC(=O)C(CCC(=O)NCCC1CCN(Cc2ccccc2)CC1)NC(=O)c1cccs1 (stereo not shown) [Example 1.8, n-hexyl 4-[2-(1-benzyl-piperidin-4-yl)-ethylcarbamoyl]-2-[(thiophen-2-carbonyl)-amino]-butyrate]
- Protection (%) ([1]; compound 0.1 micromolar (concentration of maximum protection)): 48.9%
- inhibition at 3 µM [3, 13]: 15%
- Classification (CNS penetration) [5]: CNS+
- Papp at 120 min [6]: 5.3 ± 0.01 ×10⁻⁶ cm/s
- IC50 [4, 11]: 3.5 µM
- inhibition at 10 µM [2, 12]: 73%
